The text below walks through data of patent US12370170B2, “Composition comprising naphthoquinone-based compound as active ingredient, for preventing or ameliorating fatigue, cachexia, pain, cognitive decline and hematopoietic stem cell reduction which are side effects related to anticancer drug treatment” (NADIANBIO LTD., priority 2016, dated 2025).

Common to all, as to format: in vivo, C57BL/6 mice
For experiment [1], the system named is bone marrow cells and hematopoietic stem/progenitor cells. The experiment in a line: Bone marrow hematopoietic stem cell reduction by flow cytometry, 3×ACP animal model. The conditions noted are these: 2 days after ACP. How it is done: (§1) In this invention, 11 weeks old C57BL/6 mice were used. All the mice used in the experiments of the invention were raised in an aseptic animal room at the temperature of 22˜26 L with the humidity of 55˜60%. The mice were allowed to take general solid feed (SAMTACO Co., Ltd., Korea) and water freely. The mice were adapted for 1 week before the experiment. All the experiments were performed after obtaining approval from the clinical trial management committee in accordance with the laboratory animal care and ethics regulations of Wonkwang University. The mouse animal model of the present invention was treated with different anticancer drugs. Particularly, one kind of anticancer drug was administered intraperitoneally one time or more, or several kinds of anticancer drugs were administered once or more times or at different concentrations, leading to the establishment of the animal model of the invention. In the adriamycin-induced animal model, the mice were divided into 6 groups as follows: the control group administered with PBS (Control, 5 mice), the group administered intraperitoneally with adriamycin (4 mg/kg/day) 3 times (ADR, 5 mice), the group administered orally with dunnione or β-lapachone from 3 days before the adriamycin treatment daily (20 mg/kg, 5 mice), and the group administered with dunnione or β-lapachone (20 mg/kg, 5 mice). 4 days after the final adriamycin treatment, analysis of the mice was performed.
In the 3×ACP induced animal model for the analysis of bone marrow hematopoietic stem cell protective effect, the mice were divided into 4 groups as follows: the control group administered with PBS (Control, 4 mice), the group administered intraperitoneally with 3×ACP once (3×ACP, 4 mice), the group administered orally with dunnione from 3 days before the 3×ACP treatment daily (20 mg/kg, 4 mice), and the group administered with dunnione (20 mg/kg, 4 mice). 2 days after the ACP treatment, analysis of the mice was performed. […]
As a result, as shown in FIG. 9 presenting the results of flow cytometry for the quantitative analysis of bone marrow hematopoietic cells, the region where lineage negative cells were distributed was gated. […] Next, hematopoietic stem cells and multipotent progenitor cells were separated and analyzed, leading to the analysis of multipotent progenitor cell-4 (MPP4) and hematopoietic stem cell/progenitor cell (HSPC). With the hematopoietic stem cell/progenitor cell group, long-term hematopoietic stem cells (HSC^LT), short-term hematopoietic stem cells (HSC^ST), and multipotent progenitor cell-2 and -3 (MPP2 and MPP3) were analyzed. In FIG. 9, the results of flow cytometry analyzed for each group are presented. […]
For orientation: Flow cytometry measures light scatter and fluorescence of single cells or particles in a stream.

Experiment [2] concerns F4/80 positive cells (macrophages). The experiment in a line: Inflow of macrophages into femur, F4/80 immunohistostaining, 4×ACP animal model. The conditions noted are these: dunnione 80 mg/kg oral. How it is done:
as §1, with “4 days after the final adriamycin treatment, analysis of the mice was performed.” left out

For a further experiment, the system named is orexin. Kind of experiment: Orexin protein in hypothalamus by ELISA, 4×ACP animal model. The conditions noted are these: dunnione 80 mg/kg oral daily from 3 days before, 2 days after ACP. How it is done: In this invention, 11 weeks old C57BL/6 mice were used. All the mice used in the experiments of the invention were raised in an aseptic animal room at the temperature of 22˜26 L with the humidity of 55˜60%. The mice were allowed to take general solid feed (SAMTACO Co., Ltd., Korea) and water freely. The mice were adapted for 1 week before the experiment. All the experiments were performed after obtaining approval from the clinical trial management committee in accordance with the laboratory animal care and ethics regulations of Wonkwang University. The mouse animal model of the present invention was treated with different anticancer drugs. Particularly, one kind of anticancer drug was administered intraperitoneally one time or more, or several kinds of anticancer drugs were administered once or more times or at different concentrations, leading to the establishment of the animal model of the invention. […]
To analyze orexin protein in the 4×ACP animal model prepared by the same manner as described in Example 8, the hypothalamus of the mouse was extracted, followed by the preparation of a homogenate. Orexin (MyBioSource, MBS2505504) was analyzed by ELISA to investigate the regulatory effect of β-lapachone on orexin.
For orientation: ELISA stands for enzyme-linked immunosorbent assay.

Experiment [3] has as its system inflammatory cytokines TNF-α and IL-1β. Kind of experiment: Brain inflammatory response: TNF-α and IL-1β in hypothalamus (RT-PCR, ELISA), 4×ACP animal model. The conditions noted are these: dunnione 80 mg/kg oral. How it is done: as §1
The present inventors established an animal model co-treated with three different anticancer drugs in this experiment. The anticancer drugs used herein were adriamycin (ADR), cyclophosphamide (CYP) and paclitaxel (PTX), which were indicated as ACP. […]
A homogenate was prepared with the mouse hypothalamus extracted from the 4×ACP animal model prepared by the same manner as described in Example 8. Then, the expressions of the inflammatory cytokines TNF-α and IL-1β in the brain tissue were analyzed by ELISA.

The structures appear in SMILES notation.

On to `CC1OC2=C(C(=O)C(=O)c3ccccc32)C1(C)C` (centres unmarked) [dunnione, 2,3-dihydro-2,3,3-trimethyl naphtho [1,2-b]furan-4,5-dione], for which the “total bone marrow cell number, increase relative to the group treated with the anticancer drugs” value in experiment [1] (3×ACP + dunnione 20 mg/kg oral daily from 3 days before) is “at least three times”. Moreover, in experiment [1] (3×ACP + dunnione 20 mg/kg oral), the “number of hematopoietic stem cell/progenitor cell, increase by dunnione” value is on record as “as much as three times”; the “number of long-term hematopoietic stem cells (HSC^LT), increase relative to the group treated with the anticancer drugs” value is listed as “at least 2 times”; the “number of short-term hematopoietic stem cells (HSC^ST), increase relative to the group treated with the anticancer drugs” value is at least 8 times. In experiment [2], the “increased F4/80 positive cells in the bone (femur)” value is on record as “significantly reduced”. Besides, the “orexin reduction in the hypothalamus” value with orexin is recorded as “recovered significantly almost to the same level of the control group”. Besides, the “up-regulations of TNF-α and IL-1β at protein level in the hypothalamus” value in experiment [3] (ELISA) is “significantly suppressed”. For the same compound, the “up-regulations of TNF-α and IL-1β at RNA level in the hypothalamus” value in experiment [3] (RT-PCR) was “significantly suppressed”.
